Broadly, the melting point is the temperature, or range, at which the solid turns liquid.

In turn, `Br.Cc1ccc(C(=O)N(C)c2ccc(Oc3ccc4cc(C(=O)N5CCN(Cc6ccc(OCC(F)(F)F)cc6)CC5)n(C)c4c3)nc2)cc1` [Example 23, 4,N-Dimethyl-N-[6-(1-methyl-2-{4-[4-(2,2,2-trifluoroethoxy)-benzyl]piperazine-1-carbonyl}-1H-indol-6-yloxy)pyridin-3-yl]-benzamide hydrobromide] registered a melting point of 226.1 to 227.3 °C.
The value for `Br.Br.CN(C(=O)c1ccc(C(F)(F)F)cc1)c1ccc(Oc2ccc3c(c2)cc(C(=O)N2CCN(Cc4cccnc4)CC2)n3C)nc1` [Example 559, N-Methyl-N-{6-[1-methyl-2-(4-pyridin-3-ylmethylpiperazine-1-carbonyl)-1H-indol-5-yloxy]pyridin-3-yl}-4-trifluoromethyl-benzamide dihydrobromide] was 191 to 193 °C.
The value for `Br.CC(C)Oc1ccc(CN2CCN(C(=O)c3cc4ccc(Oc5ccc(N(C)C(=O)c6ccc(OC(F)(F)F)cc6)cn5)cc4n3C)CC2)cc1` [Example 472, N-(6-{2-[4-(4-Isopropoxybenzyl)piperazine-1-carbonyl]-1-methyl-1H-indol-6-yloxy}pyridin-3-yl)-N-methyl-4-trifluoromethoxy-benzamide hydrobromide] was 237.2 to 238.5 °C.
The value for `COc1ccc(CN2CCN(C(=O)c3cc4cc(Oc5ccc(N(C)C(=O)c6ccc(Cl)c(Cl)c6)cn5)ccc4n3C)CC2)nc1.O=C(O)/C=C\C(=O)O` [Example 389, 3,4-Dichloro-N-(6-{2-[4-(5-methoxypyridin-2-ylmethyl)piperazine-1-carbonyl]-1-methyl-1H-indol-5-yloxy}pyridin-3-yl)-N-methyl-benzamide maleate] was 155 to 156 °C; that for `CN(C(=O)c1ccc(C(F)(F)F)cc1)c1ccc(Oc2ccc3c(c2)cc(C(=O)N2CCN(C(=O)c4ccc(C#N)cc4)CC2)n3C)nc1` [Example 242, N-(6-{2-[4-(4-Cyanobenzoyl)piperazine-1-carbonyl]-1-methyl-1H-indol-5-yloxy}pyridin-3-yl)-N-methyl-4-trifluoromethylbenzamide] was 135 to 137 °C.
`Br.Cn1c(C(=O)N2CCN(Cc3ccc(C#N)cc3)CC2)cc2ccc(Oc3ccc(NC(=O)c4ccc(Cl)c(Cl)c4)cn3)cc21` [Example 263, 3,4-Dichloro-N-(6-{2-[4-(4-cyanobenzyl)piperazine-1-carbonyl]-1-methyl-1H-indol-6-yloxy}pyridin-3-yl)benzamide hydrobromide]: the melting point was 263.9 to 267.4 °C.
The value for `Br.Br.Cn1c(C(=O)N2CCN(Cc3ccncc3)CC2)cc2cc(Oc3ccc(NC(=O)c4ccc(C(F)(F)F)cc4)cn3)ccc21` [Example 550, N-{6-[1-Methyl-2-(4-pyridin-4-ylmethylpiperazine-1-carbonyl)-1H-indol-5-yloxy]pyridin-3-yl}-4-trifluoromethylbenzamide dihydrobromide] was 211 to 215 °C (dec.).
`CN(C(=O)c1ccc(C(F)(F)F)cc1)c1ccc(Oc2ccc3c(c2)cc(C(=O)N2CCN(Cc4ccc(OCCF)cc4)CC2)n3C)nc1.O=C(O)/C=C\C(=O)O` [Example 408, N-[6-(2-{4-[4-(2-Fluoroethoxy)benzyl]piperazine-1-carbonyl}-1-methyl-1H-indol-5-yloxy)pyridin-3-yl]-N-methyl-4-trifluoromethyl-benzamide maleate] showed a melting point of 152 to 154 °C.
In turn, `CC(C)Cc1ccc(CN2CCN(C(=O)c3cc4cc(Oc5ccc(N(C)C(=O)c6ccc(C(F)(F)F)cc6)cn5)ccc4n3C)CC2)cc1.O=C(O)/C=C\C(=O)O` [Example 416, N-(6-{2-[4-(4-Isobutylbenzyl)piperazine-1-carbonyl]-1-methyl-1H-indol-5-yloxy}pyridin-3-yl)-N-methyl-4-trifluoromethylbenzamide maleate] came in with a melting point of 147 to 149 °C.
The value for `Br.Cn1c(C(=O)N2CCN(Cc3ccc(OCC(F)F)cc3)CC2)cc2cc(Oc3ccc(NC(=O)c4ccc(Cl)c(Cl)c4)cn3)ccc21` [Example 407, 3,4-Dichloro-N-[6-(2-{4-[4-(2,2-difluoroethoxy)benzyl]piperazine-1-carbonyl}-1-methyl-1H-indol-5-yloxy)pyridin-3-yl]benzamide hydrobromide] was 241 to 245 °C.
As for `Br.CN(C(=O)c1ccc(C(F)(F)F)cc1F)c1ccc(Oc2ccc3c(c2)cc(C(=O)N2CCN(Cc4ccc5c(c4)OCO5)CC2)n3C)nc1` [Example 319, N-{6-[2-(4-Benzo[1,3]dioxol-5-ylmethylpiperazine-1-carbonyl)-1-methyl-1H-indol-5-yloxy]pyridin-3-yl}-2-fluoro-N-methyl-4-tri-fluoromethylbenzamide hydrobromide], the melting point was 187 to 190 °C.
The value for `Cc1ccc(C(=O)N(C)c2ccc(Oc3ccc4cc(C(=O)N5CCN(Cc6ccc(OC(F)F)cc6)CC5)n(C)c4c3)nc2)cc1` [Example 276, N-(6-{2-[4-(4-Difluoromethoxybenzyl)piperazine-1-carbonyl]-1-methyl-1H-indol-6-yloxy}pyridin-3-yl)-4,N-dimethylbenzamide] was 140.1 to 141.3 °C.
In the case of `Br.CCCOc1ccc(CN2CCN(C(=O)c3cc4ccc(Oc5ccc(NC(=O)c6ccc(Cl)c(Cl)c6)cn5)cc4n3C)CC2)cc1` [Example 256, 3,4-Dichloro-N-(6-{1-methyl-2-[4-(4-propoxybenzyl)piperazine-1-carbonyl]-1H-indol-6-yloxy}pyridin-3-yl)benzamide hydrobromide], the melting point is 239.2 to 240.4 °C.
The value for `COc1ccc(CN2CCN(C(=O)c3cc4cc(Oc5ccc(NC(=O)c6ccc(C(F)(F)F)cc6)cn5)ccc4n3C)[C@@H](C)C2)cc1.O=C(O)C(=O)O` [Example 396, N-(6-{2-[(S)-4-(4-Methoxybenzyl)-2-methylpiperazine-1-carbonyl]-1-methyl-1H-indol-5-yloxy}pyridin-3-yl)-4-trifluoromethyl-benzamide oxalate] was 159 to 160 °C.
The same measure for `Br.Cc1ccc(S(=O)(=O)N(C)c2ccc(Oc3ccc4cc(C(=O)N5CCN(Cc6ccc(OCCC(C)C)cc6)CC5)n(C)c4c3)nc2)cc1` [Example 533, 4,N-Dimethyl-N-[6-(1-methyl-2-{4-[4-(3-methylbutoxy)benzyl]-piperazine-1-carbonyl}-1H-indol-6-yloxy)pyridin-3-yl]benzene-sulfonamide hydrobromide]: 236.5 to 238.3 °C (dec.); for `Br.CCOc1ccc(CN2CCN(C(=O)c3cc4c(C)c(Oc5ccc(N(C)C(=O)c6ccc(C(F)(F)F)cc6)cn5)ccc4n3C)CC2)cc1` [Example 427, N-(6-{2-[4-(4-Ethoxybenzyl)piperazine-1-carbonyl]-1,4-dimethyl-1H-indol-5-yloxy}pyridin-3-yl)-N-methyl-4-trifluoromethyl-benzamide hydrobromide]: 224 to 226 °C.
The same measure for `COc1ccc(CN2CCN(C(=O)c3cc4c(Oc5ccc(N(C)C(=O)c6ccc(C(F)(F)F)cc6)cn5)cccc4n3C)CC2)cc1.O=C(O)C(=O)O` [Example 325, N-(6-{2-[4-(4-Methoxybenzyl)piperazine-1-carbonyl]-1-methyl-1H-indol-4-yloxy}pyridin-3-yl)-N-methyl-4-trifluoromethylbenzamide oxalate]: 139 to 141 °C; for `Br.Cn1c(C(=O)N2CCN(Cc3ccc(OC(F)(F)F)cc3)CC2)cc2ccc(Oc3ccc(NC(=O)c4ccc(Cl)c(Cl)c4)cn3)cc21` [Example 264, 3,4-Dichloro-N-(6-{1-methyl-2-[4-(4-trifluoromethoxybenzyl)-piperazine-1-carbonyl]-1H-indol-6-yloxy}pyridin-3-yl)benzamide hydrobromide]: 261.6 to 264.7 °C.
`Cn1c(C(=O)N2CCN(Cc3ccc(C#N)cc3)CC2)cc2cc(Oc3ccc(NC(=O)c4ccc(C(F)(F)F)cc4)cn3)ccc21.O=C(O)/C=C\C(=O)O` [Example 552, N-(6-{2-[4-(4-Cyanobenzyl)piperazine-1-carbonyl]-1-methyl-1H-indol-5-yloxy}pyridin-3-yl)-4-trifluoromethylbenzamide maleate] had a melting point of 149 to 152 °C.
With `CC(C)CN1CCN(C(=O)c2cc3cc(Oc4ccc(N(C)C(=O)c5ccc(C(F)(F)F)cc5)cn4)ccc3n2C)CC1` [Example 562, N-{6-[2-(4-Isobutylpiperazine-1-carbonyl)-1-methyl-1H-indol-5-yl-oxy]pyridin-3-yl}-N-methyl-4-trifluoromethylbenzamide], the melting point was in the range of 163 to 164 °C.
The same measure for `Br.CCN(C(=O)Nc1ccc(Cl)c(Cl)c1)c1ccc(Oc2ccc3c(c2)cc(C(=O)N2CCN(Cc4ccc5c(c4)OCO5)CC2)n3C)nc1` [Example 583, 1-{6-[2-(4-Benzo[1,3]dioxol-5-ylmethylpiperazine-1-carbonyl)-1-methyl-1H-indol-5-yloxy]pyridin-3-yl}-3-(3,4-dichlorophenyl)-1-ethylurea hydrobromide]: 224 to 228 °C; for `Br.CCCOc1ccc(CN2CCN(C(=O)c3cc4cc(Oc5ccc(NC(=O)c6ccc(C(F)(F)F)cc6)cn5)ccc4n3C)CC2)cc1` [Example 481, N-(6-{1-Methyl-2-[4-(4-propoxybenzyl)piperazine-1-carbonyl]-1H-indol-5-yloxy}pyridin-3-yl)-4-trifluoromethylbenzamide hydrobromide]: 234.7 to 235.1 °C; for `Cc1ccc(S(=O)(=O)N(C)c2ccc(Oc3ccc4cc(C(=O)N5CCN(Cc6ccc7c(c6)OCO7)CC5)n(C)c4c3)nc2)cc1.Cl`: 242 to 249 °C.
Turning to `CC(C)CN1CCN(C(=O)c2cc3ccc(Oc4ccc(NC(=O)c5ccc(C(F)(F)F)cc5)cn4)cc3n2C)CC1.Cl`, the melting point was in the range of 270.2 to 272.2 °C.
`CN(C(=O)c1ccc(C(F)(F)F)cc1F)c1ccc(Oc2ccc3cc(C(=O)N4CCN(Cc5ccc(OCC(F)(F)F)cc5)CC4)n(C)c3c2)nc1.Cl` registered a melting point of 234.5 to 235.8 °C.
The same measure for `Br.CN(C(=O)c1ccc(C(F)(F)F)cc1Cl)c1ccc(Oc2ccc3cc(C(=O)N4CCN(Cc5ccc(OCC(F)(F)F)cc5)CC4)n(C)c3c2)nc1` [Example 449, 2-Chloro-N-methyl-N-[6-(1-methyl-2-{4-[4-(2,2,2-trifluoroethoxy)-benzyl]piperazine-1-carbonyl}-1H-indol-6-yloxy)pyridin-3-yl]-4-trifluoromethylbenzamide hydrobromide]: 239.5 to 240.6 °C.

The values are drawn from patent publication US8551999B2, “Heterocyclic compound and pharmaceutical composition thereof” (Otsuka Pharmaceutical Co., Ltd., priority 2007, dated 2013).
